“Also recorded” adds a separate entry of the source.
What was measured:
p16^INK4a [1] = assay: Imiquimod-induced skin senescence in p16^LUC mice, bioluminescence imaging; type: in vivo, SKH1 hairless p16^LUC mice
Source text: In order to study the effects of NAD^+ agonists on cellular senescence associated with the skin, which is associated with inflammation, senescence was induced in a luciferase knockin (p16^LUC) mouse (Burd et al. (2013) Cell 152: 340-351) using topical application of Imiquimod. Imiquimod (IMQ) is an immune modulator topically applied for skin conditions such as melanoma and genital warts. The side effect of IMQ is severe, painful inflammation and aging of the skin.
P16^LUC mice contain the firefly luciferase cDNA inserted into the translational start site of the endogenous p16^INK4a gene. Conditions which induce expression of the p16^INK4a gene, and therefore induce cellular senescence, also induce expression of firefly luciferase in p16^LUC mice (Burd et al. […] Cell 152:340-351; Sorrentino et al. (2014) The Journal of Clinical Investigation, 124(1): 169-351).
The following formulations were prepared: • 1. Cream carrier (containing no IMQ) (control or ctrl); • 2. IMQ cream (containing 5% IMQ) mixed with 10% water (IMQ); and • 3. IMQ cream (containing 5% IMQ) mixed with […] NMN (equating to 5% NMN) (IMQ+NMN).
Each of 1, 2 and 3 were applied daily to the rump of SKH1 hairless p16^LUC mice for 4 days. The animals were subjected to bioluminescence imaging as a readout for senescence. Areas of fluorescence are indicated as darkened areas in FIG. 4.

3T3-L1 adipocytes [2] = assay: SA-β-gal chromogenic staining of dexamethasone treated 3T3-L1 adipocytes; type: cell-based; settings: 5 days; dexamethasone 1, 0.5, 0.1 or 0.01 mg/ml; 1 mM NMN, 25 mM apigenin
Method: To further investigate the effects of NAD^+ agonists on dexamethasone induced senescence, 3T3-L1 adipocytes were treated for 5 days with ethanol (control), or 1 mg/ml, 0.5 mg/ml, 0.1 mg/ml or 0.01 mg/ml of dexamethasone in combination with either DMSA, 1 mM NMN, 25 mM apigenin, or 1 mM NMN and 25 mM apigenin and subjected to senescence associated beta-galactosidase staining according to the chromogenic protocol of Debacq-Chainiaux F et al Nature Protocols 2009.

3T3-L1 adipocytes [3] = assay: Intracellular lipid content (oil red o) of 3T3-L1 adipocytes treated with antiretroviral agents; settings: for intracellular lipid content (oil red o, absorbance at 544 nm): 24 hr
Method: The ability of NAD^+ agonists to reduce or prevent lipodystrophy associated with anti-retroviral compounds was assessed. The ability of NMN to prevent or reduce lipodystrophy was tested by determining the lipid content of 3T3-L1 adipocytes treated with a vehicle, or the antiretroviral agent stavudine, either alone or in combination with NMN.
3T3-L1 adipocytes were treated for 24 hr with the HIV antiretroviral compound stavudine (10 nM) in the presence or absence of NMN (1 mM). Intracellular lipid content was assessed using oil red o staining, which was quantified by reading absorbance at 544 nm. Error bars: SD.
In order to further test the ability of NAD^+ agonists to reduce lipodystrophy associated with antiretroviral agents, 3T3-L1 adipocytes were treated for 24 hr with various antiretroviral compounds (30 μM) in the presence or absence of NMN (1 mM) or apigenin (25 μM). Intracellular lipid content was assessed using oil red o staining, which was quantified by reading absorbance at 544 nm.

C2C12 myoblasts [4] = assay: SA-β-Gal activity in C2C12 myoblasts by flow cytometry with C12FDG; type: cell-based
Method: To determine the ability of NAD^+ agonists to prevent or reduce senescence associated with treatment with corticoids, C2C12 myoblasts were assayed for SA-β-Gal activity following contact with vehicle, NMN, apigenin, dexamethasone, dexamethasone and NMN, and dexamethasone and apigenin. SA-β-Gal activity was determined using the fluorogenic substrate, C12FDG, by flow cytometry (protocol of Debacq-Chainiaux et al. Nature Protocols 2009). FIG. 7A: […] FIGS. 7B and 7C: […] SA-β-Gal activity was decreased with NMN and/or apigenin. All data are presented as the mean value. * p<0.05, **** p<0.0001, using two-way ANOVA multiple comparisons test.

C2C12 myoblasts [5] = assay: SA-β-Gal staining of C2C12 myoblasts incubated with various agents; type: cell-based
Method: The ability of NAD^+ agonists to reduce senescence associated with various agents was tested by inclubating C2C12 myoblasts with various agents in the presence or absence of NMN or apigenin, and the cells subsequent stained as mentioned above for SA-β-Gal activity. The following agents were tested: [table]

[6] = Blood glucose and free water (echoMRI) in dexamethasone treated rats; type: in vivo, Sprague-Dawley rats; settings: one day after injection
Method: To study the effects of NAD^+ agonists on senescence associated with treatment with corticoids, 250 g Sprague-Dawley rats were administered daily intraperitoneal injections of the following formulations for 3 days: • 1. Vehicle: saline • 2. Dexamethasone: 0.8 mg/kg of animal dexamethasone sodium phosphate • 3. Dexamethasone+NMN: 0.8 mg/kg body weight dexamethasone sodium phosphate and 1.5 g/kg body weight NMN.
After 3 days, blood glucose was determined.
Free water was assessed by echMRI one day after injection of the above formulations.

[7] = Body weight after doxorubicin; type: in vivo, male C57BL6 mice; settings: doxorubicin 10 mg/kg i.p. single dose at day 8
Method: Vehicle control: 10% DMSO in PBS administered intraperitoneally; • 2. Apigenin: administered in diet at 500 mg/kg of diet, in addition to vehicle control administered i.p.; • 3. […] Apigenin administered in diet of 500 mg/kg of diet, and doxorubicin administered at 10 mg/kg body weight i.p. Apigenin was administered 8 days prior to administration of a single dose of doxorubicin. Body weight was assessed during the course of the experiment as a read-out of general health and malaise, the results of which are shown in FIG. 11.

p16^INK4A [8] = assay: Doxorubicin-induced senescence in p16^LUC mice, bioluminescence/CT imaging; type: in vivo; settings: doxorubicin alone 1 mg/kg i.p.; imaging 24 hours after treatment
Method: Vehicle control: 10% DMSO in PBS administered intraperitoneally; • 2. Apigenin: administered in diet at 500 mg/kg of food in addition to vehicle control administered i.p.; • 3. […] Apigenin administered in chow diet at 500 mg/kg of food, and doxorubicin administered at 1 mg/kg body weight i.p. Apigenin was administered 4 days prior to administration of doxorubicin. The animals were subjected to bioluminescence/CT imaging (Spectrum-CT instrument, PerkinElmer) as a readout for senescence 24 hours after treatment was completed. Areas of luminescence are shown as lightened areas in FIG. 5 and are indicated by an arrow.

CD38 = biological target: T1, CD38 (Homo sapiens, UniProt P28907); settings: in vitro; Esande et al. (2013) Diabetes; cited from earlier work
T1 sequence (P28907 1-300): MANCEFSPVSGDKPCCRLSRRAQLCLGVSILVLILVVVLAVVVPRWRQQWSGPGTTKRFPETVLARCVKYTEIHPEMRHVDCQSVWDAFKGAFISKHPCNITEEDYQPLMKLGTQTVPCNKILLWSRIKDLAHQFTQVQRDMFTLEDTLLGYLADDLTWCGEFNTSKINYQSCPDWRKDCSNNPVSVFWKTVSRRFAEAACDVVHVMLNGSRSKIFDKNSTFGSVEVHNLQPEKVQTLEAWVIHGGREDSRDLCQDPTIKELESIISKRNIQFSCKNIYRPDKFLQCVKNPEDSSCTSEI

CC(C)Cn1cnc2c(N)nc3ccccc3c21 [IMQ, Imiquimod, reference compound]
p16^IN14a induction (bioluminescence) (p16^INK4a [1]; IMQ cream (5% IMQ) alone, applied daily to rump for 4 days): showed areas of p16^IN14a induction

NC(=O)c1ccc[n+]([C@@H]2O[C@H](COP(=O)([O-])O)[C@@H](O)[C@H]2O)c1 [NMN, nicotinamide mononucleotide]
erythema, scaling and redness of skin (p16^INK4a [1]; IMQ and NMN topical vs IMQ): less erythema, scaling and redness
p16^IN14a induction (bioluminescence) (p16^INK4a [1]; IMQ cream (5% IMQ) mixed with NMN (5% NMN), topical daily for 4 days, vs IMQ): little or no signs of p16^IN14a induction
SA-β-gal staining (blue cells), dexamethasone induced senescence (3T3-L1 adipocytes [2]): reduced SA-β-gal staining; also recorded: reduce or prevent senescence induced by dexamethasone
lipodystrophy (intracellular lipid content, oil red o) (3T3-L1 adipocytes [3]; NMN 1 mM, cells treated 24 hr with 30 μM AZT, 3TC, stavudine, Efavirenz, Lopinavir, Ritonavir, Tipranavir): reduced lipodystrophy
intracellular lipid content (oil red o, absorbance at 544 nm) (3T3-L1 adipocytes [3]; stavudine 10 nM and NMN 1 mM, vs NMN and vehicle): no reduction in lipid content
SA-β-Gal activity (FIG. 7A) (C2C12 myoblasts [4]; 48 hours, NMN 1 mM, both ethanol vehicle and dexamethasone (0.1 μg/ml) treated groups): significantly reduced SA-β-Gal activity
SA-β-Gal activity (FIG. 7B) (C2C12 myoblasts [4]; 72 hours, dexamethasone sodium phosphate 250 nM or PBS, NMN 1 mM or apigenin 25 uM): decreased
SA-β-Gal activity (FIG. 7C) (C2C12 myoblasts [4]; 96 hours, dexamethasone sodium phosphate 250 nM or PBS, NMN 1 mM or apigenin 25 uM): decreased
percentage of cells which exhibited SA-β-Gal activity following treatment with dexamethasone (C2C12 myoblasts [4]; summary of FIGS. 7A-7C): reduced the percentage of cells which exhibited SA-β-Gal activity
extent of senescence (proportion of cells stained blue, SA-β-Gal activity) (C2C12 myoblasts [5]; agents of the table of b212 with vs without apigenin or NMN): reduce the extent of senescence induced by the agents tested
extent to which the cells undergo senescence (C2C12 myoblasts [5]; co-administration with AZT, 3TC, zalcitabine, efavirenze, lopinavir, ritonavir, nevirapine, tipranavir, tenofovir, invirase vs agent alone): reduces the extent to which the cells undergo senescence
extent to which the cells undergo senescence (C2C12 myoblasts [5]; co-administration with PPARγ agonist rosiglitazone vs rosiglitazone alone): reduces the extent to which the cells undergo senescence
extent to which the cells undergo senescence (C2C12 myoblasts [5]; co-administration with antiprotozoal agent quinacrine vs quinacrine alone): reduces the extent to which the cells undergo senescence
extent to which the cells undergo senescence (C2C12 myoblasts [5]; co-administration with each of the chemotherapeutic agents listed in b109 vs agent alone): reduces the extent to which the cells undergo senescence
extent to which the cells undergo senescence (C2C12 myoblasts [5]; co-administration with xanthine oxidase inhibitor allopurinol vs allopurinol alone): reduces the extent to which the cells undergo senescence
extent to which the cells undergo senescence (C2C12 myoblasts [5]; co-administration with zolendronate vs zolendronate alone): reduces the extent to which the cells undergo senescence
free water (echoMRI) ([6]; dexamethasone sodium phosphate 0.8 mg/kg plus NMN 1.5 g/kg i.p., vs dexamethasone): reversed this effect

C[C@@H]1C[C@H]2[C@@H]3CCC4=CC(=O)C=C[C@]4(C)[C@@]3(F)[C@@H](O)C[C@]2(C)[C@@]1(O)C(=O)CO [dexamethasone, reference compound]
free water (echoMRI) ([6]; dexamethasone sodium phosphate 0.8 mg/kg i.p.): significantly reduced the amount of free water

COc1cccc2c1C(=O)c1c(O)c3c(c(O)c1C2=O)C[C@@](O)(C(=O)CO)C[C@@H]3O[C@H]1C[C@H](N)[C@H](O)[C@H](C)O1 [doxorubicin, reference compound]
body weight [7]: permanent loss of body weight for at least 40 days
p16^INK4A induction (bioluminescence) (p16^INK4A [8]): large areas of bioluminescence

O=c1c(O)c(-c2ccc(O)c(O)c2)oc2cc(O)cc(O)c12 [quercetin, 2-(3,4-dihydroxyphenyl)-3,5,7-trihydroxy-4H-chromen-4-one, reference compound]
inhibition of CD38 activity (CD38): inhibitors of CD38 activity in vitro

Cc1cn([C@H]2C=C[C@@H](CO)O2)c(=O)[nH]c1=O [stavudine, 2′,3′-didehydro-2′,3′-dideoxythymidine, reference compound]
intracellular lipid content (oil red o, absorbance at 544 nm) (3T3-L1 adipocytes [3]; stavudine 10 nM alone, vs vehicle): reduction in lipid content

From patent US20240108645A1, “SENESCENCE AND SENESCENCE ASSOCIATED SECRETORY PHENOTYPE” (Metro Biotech NSW Pty Ltd, priority 2013, published 2024)
